Data from patent US10682388B2, “Targeting of PELP1 in cancer therapy” (THE BOARD OF REGENTS OF THE UNIVERSITY OF TEXAS SYSTEM, priority 2014, dated 2020).
“Also recorded” adds a separate entry of the source.

Experiments:
ZRPELP1 cells = assay: Initial screen, proliferation assay of PELP1-overexpressing breast cancer cells; type: cell-based, Human; settings: peptide every 3 days, absorbance at 7 days, FIG. 1B
Description: FIGS. 1A-D. (FIG. 1A) Diagram for yeast two hybrid screen to identify PELP1 binding peptides. Four regions of PELP1 were tagged with the binding domain and a library of 10^6 random peptides (Clontech) were bound to an activation domain. The number of positive colonies per region of PELP1 are shown in the graph. (FIG. 1B) A proliferation assay was performed with […]1 cells plated in a 96 well plate, treated with peptide every 3 days and absorbance was measured at 7 days. (FIG. 1C) ZR75 were plated in a 6-well plate on coverslips in 8% RPMI and treated with 10 uM FITC labeled peptide for 30, 60, or 120 minutes. They were then fixed with pararformaldehyde, stained for PELP1 (red) and DAPI (blue), and imaged by confocal microscopy to monitor intracellular delivery. (FIG. 1D) ZR75 cells were starved of estrogen for 72 hours and treated with estradiol 10^-7 M for 12 hours. Nuclear lysate was incubated with biotin-tagged peptides bound to avidin beads for one hour. Beads were washed, run on SDS-PAGE gel and probed for PELP1 expression. Input of nuclear lysate is shown as control. Cell proliferation rates were measured by using MTT Cell Viability Assay in 96-well plates. Model cells were seeded in 96-well plates (1×10^3 cells/well) in DMEM or RPMI medium containing 10% serum. After an overnight incubation, cells were treated with varying concentrations of the peptides for 3-7 days and growth inhibition was determined by using traditional MTT assay (Sigma) following manufacturer's instructions.

PELP1-G9a complex = biological target: T1, PELP1-G9a complex (Homo sapiens, UniProt Q8IZL8); assay: In vitro peptide competition assay, G9a-GST on glutathione beads with purified PELP1; type: binding; settings: peptides 2, 5, 10 μM, 2 hours, FIGS. 2C, 7B, 9
T1 construct: purified bacterial, full-length PELP1; host or cells: bacteria (PELP1)
Description: FIGS. 2A-D. (FIG. 2A) Immunoprecipitation was performed on nuclear lysates obtained from ZRPELP1 cells grown in 5% DCC for 72 hours and treated with estradiol 10^−7 M for 12 hours. PELP1 was immunoprecipitated and western blotting was performed for PELP1 and G9a expression with IgG as the control. (FIG. 2B) Various fragments of PELP1 bound to glutathione beads were incubated with recombinant G9a for 2 hours. Beads were washed, run on an SDS-PAGE gel and immunoblotted for G9a expression. GST tag alone is shown as control. (FIG. 2C) Recombinant G9a-GST was bound to glutathione beads and incubated with purified PELP1 and peptides for 2 hours. Beads were washed and run on SDS-PAGE gel. (FIG. 2D) ZR75 cells were transfected with ERE-luciferase, PELP1 and/or G9a plasmids and treated with peptide for 24 hours and estradiol 10^−7 M for 12 hours. Relative luciferase activity is shown.
FIGS. 7A-E. (FIG. 7A) Bacterial purified PELP1 was incubated with biotin-tagged peptides bound to avidin beads for one hour. Beads were washed, run on SDS-PAGE gel and probed for PELP1 expression. Input of bacterial PELP1 is shown as control. (FIG. 7B) Recombinant G9a-GST was bound to glutathione beads and incubated with purified PELP1 and peptides for 2 hours. Beads were washed and run on SDS-PAGE gel. (+2 μM, ++5 μM, +++10 μM). (FIG. 7C) ZRGST and ZRPELP1GST cells were transfected in triplicate with TopFlash β-catenin reporter and treated with TAT or PIP1 (10 μM) for 24 hours. Relative luciferase activity is shown. (FIG. 7D) MCF7vec and MCF7PELP1 cells were treated with TAT or PIP1 (10 μM) and toxicity was measured by CytoTox-Flour Cytotoxicity Assay. (FIG. 7E) ZR75 and ZR75PELP1 cells were treated with TAT, PIP1 or PIP2 for 24 hours and immunoblotted for PELP1 and ERα expression with actin as the loading control.
FIG. 9. […]
Peptides were linked to EZ-Link NHS-Biotin (Thermo Scientific) per manutfacturer's protocol. […] Beads were washed 3× with IP buffer (20 mM HEPES pH 7.9, 20% glycerol, 0.1% triton-x, 100 mM KCl), eluted with SDS-dye, and PELP1 expression was determined by western blotting. […]

[1] = system: MDA-MB-231 and MDA-MB-468; assay: MTT proliferation assay, triple negative breast cancer cell lines; type: cell-based; settings: preliminary studies
Description: FIGS. 8A-C. (FIG. 8A) ZR75PELP1KD cells were treated in triplicate with TAT or PIP1 (10, 20, or 50 μM) every 3 days and proliferation was measured by MTT assay on day 7. (FIG. 8B) MCF7PELP1KD cells were treated in triplicate with TAT or PIP1 (10, 20, or 50 μM) every 3 days and proliferation was measured by MTT assay on day 7. (FIG. 8C) MDAMB231 and MDAMB468 cells were treated in triplicate with TAT or PIP1 (10 μM) every 3 days and proliferation was measured by MTT assay on day 7. Cell proliferation rates were measured by using MTT Cell Viability Assay in 96-well plates. Model cells were seeded in 96-well plates (1×10^3 cells/well) in DMEM or RPMI medium containing 10% serum. After an overnight incubation, cells were treated with varying concentrations of the peptides for 3-7 days and growth inhibition was determined by using traditional MTT assay (Sigma) following manufacturer's instructions.

[2] = system: TNBC (MDA-MB-231 and MDA-MB-468) and ER-positive (ZR-75 and MCF-7) breast cancer cell lines; assay: MTT proliferation assay of PIP3, TNBC and ER-positive breast cancer cell lines; type: cell-based; settings: 10 μM and dose response, FIGS. 13A-C
Description: FIGS. 13A-C. […] (FIG. 13A) Breast cancer cells were treated with vehicle or 10 μM PIP3 and proliferation was measured by using the MTT assay. (FIGS. 13B-C) Dose response curves for PIP3. Cell proliferation rates were measured by using MTT Cell Viability Assay in 96-well plates. Model cells were seeded in 96-well plates (1×10^3 cells/well) in DMEM or RPMI medium containing 10% serum. After an overnight incubation, cells were treated with varying concentrations of the peptides for 3-7 days and growth inhibition was determined by using traditional MTT assay (Sigma) following manufacturer's instructions.

[3] = system: T98G, LN229 and U251 glioma cells and patient-derived primary GBM cells; assay: MTT proliferation assay, glioma cell lines and primary GBM cells; type: cell-based; settings: FIGS. 15A-D
Description: FIGS. 15A-D. PIPs inhibit proliferation of glioma cells. (FIGS. 15A-B) T98G, LN229 and U251 glioma cells were treated with vehicle or varying concentration of PIP1 or PIP3, and proliferation was measured by using the MTT assay. (FIGS. 15C-D) Patient-derived primary GBM cells were treated with PIP1 or PIP3 and proliferation was measured using the MTT assay. Cell proliferation rates were measured by using MTT Cell Viability Assay in 96-well plates. Model cells were seeded in 96-well plates (1×10^3 cells/well) in DMEM or RPMI medium containing 10% serum. After an overnight incubation, cells were treated with varying concentrations of the peptides for 3-7 days and growth inhibition was determined by using traditional MTT assay (Sigma) following manufacturer's instructions.

[4] = system: ERE-luciferase in ZRPELP1 cells; assay: ERE-luciferase reporter gene assay in PELP1 overexpressing cells; type: cell-based, Human; settings: peptide 24 hours, estradiol 12 hours, compared to control TAT, FIGS. 4B, 10
Description: (§1) FIGS. 4A-E. (FIG. 4A) ZR75vec, ZR75PELP1, MCF7vec and MCF7PELP1 cells were treated in triplicate with TAT, PIP1 or PIP1 deletions (Del1, Del2, Del3) at 10 uM every 3 days and proliferation was measured by MTT assay on day 7. (FIG. 4B) ZRPELP1 cells were transfected with ERE-luciferase and treated with TAT, PIP1, or PIP2 for 24 hours and with estradiol for 12 hours. Relative luciferase activity was measured in triplicate. (FIG. 4C) ZR75 cells were grown in 5% DCC media for 72 hours, treated with TAT or PIP1 every 3 days, and treated with estradiol 10^−7 M for 12 hours. Proliferation was measured in triplicate on day 7 by MTT assay at 595 nm. (FIG. 4D) MCF7-Letrozole resistant cells were grown in 5% DCC media for 72 hours, treated with TAT, PIP1 or PIP2 every 3 days, and letrozole or estradiol 10^−7 M for 12 hours. Proliferation was measured in triplicate on day 7 by MTT assay at 595 nm. (FIG. 4E) MCF7-Tamoxiefn resistant cells were grown in 5% DCC media for 72 hours, treated with TAT, PIP1 or PIP2 every 3 days, and tamoxifen or estradiol 10^−7 M for 12 hours. Proliferation was measured in triplicate on day 7 by MTT assay at 595 nm.
FIG. 10. ERE-luciferase assay. […]
Model cells were seeded in 6-well plates. […] Luciferase activity was measured by using the luciferase assay system (Promega, Madison, Wis.).

[5] = system: MCF7-TamR and MCF7-LTLT cells; assay: Therapy resistance assays, MTT; type: cell-based, Human; settings: MCF7-TamR and MCF7-LTLT, 10 μM, FIGS. 4D-E, 11
Description: as §1
FIG. 11. Cell proliferation assay: letrozole-resistant MCF-7-LTLT cells and Tamoxifen resistant MCF7-Tam cells were treated with TAT, PIP1, or PIP2 (10 μM)+/− letrozole or Tamoxifen.
Tamoxifen (Tam) therapy resistant MCF7-TamR and letrozole resistant MCF7-LTLT cells were cultured in tamoxifen or letrozole (10^-7M) containing media in the presence or absence of peptides and proliferation was measured by MTT assay (Sigma) following manufacturer's instructions.

T1 sequence (Q8IZL8 2-1130, one chain of several): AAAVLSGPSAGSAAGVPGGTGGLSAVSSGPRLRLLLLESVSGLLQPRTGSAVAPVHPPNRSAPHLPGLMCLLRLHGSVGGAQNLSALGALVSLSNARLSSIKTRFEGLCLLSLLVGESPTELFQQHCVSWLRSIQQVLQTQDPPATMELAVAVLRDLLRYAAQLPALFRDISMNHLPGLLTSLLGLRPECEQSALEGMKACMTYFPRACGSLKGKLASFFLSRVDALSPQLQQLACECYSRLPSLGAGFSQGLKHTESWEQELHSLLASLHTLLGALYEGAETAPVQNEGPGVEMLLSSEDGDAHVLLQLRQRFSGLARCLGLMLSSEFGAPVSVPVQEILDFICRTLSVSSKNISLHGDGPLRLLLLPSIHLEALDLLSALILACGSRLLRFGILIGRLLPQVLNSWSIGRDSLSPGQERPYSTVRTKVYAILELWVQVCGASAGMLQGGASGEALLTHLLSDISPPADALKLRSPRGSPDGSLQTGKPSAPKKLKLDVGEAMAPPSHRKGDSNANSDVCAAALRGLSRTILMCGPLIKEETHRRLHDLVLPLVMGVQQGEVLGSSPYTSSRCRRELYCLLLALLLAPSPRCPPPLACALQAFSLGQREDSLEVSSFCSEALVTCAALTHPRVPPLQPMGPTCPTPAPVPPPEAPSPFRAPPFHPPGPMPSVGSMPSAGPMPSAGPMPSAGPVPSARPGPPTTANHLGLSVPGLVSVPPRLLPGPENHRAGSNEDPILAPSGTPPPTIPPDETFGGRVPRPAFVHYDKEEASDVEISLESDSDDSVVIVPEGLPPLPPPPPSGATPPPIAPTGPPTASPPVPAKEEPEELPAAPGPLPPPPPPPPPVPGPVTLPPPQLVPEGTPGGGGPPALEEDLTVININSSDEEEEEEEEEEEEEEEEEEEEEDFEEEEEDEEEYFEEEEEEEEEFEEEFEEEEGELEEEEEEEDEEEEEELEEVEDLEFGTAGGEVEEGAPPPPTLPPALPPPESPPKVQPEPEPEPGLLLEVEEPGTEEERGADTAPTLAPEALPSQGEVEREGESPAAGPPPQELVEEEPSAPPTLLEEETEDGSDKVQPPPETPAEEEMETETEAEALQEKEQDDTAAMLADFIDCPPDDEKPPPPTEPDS

GRKKRRQRRRGG [TAT, reference compound]
PELP1-mediated breast cancer cell proliferation (ZRPELP1 cells): no significant effect | disruption of PELP1 interaction with G9a/EHMT2 (PELP1-G9a complex): no effect

GRKKRRQRRRGGFKEWWRIDMVWLHRVRRNSY [PIP3]
activity on TNBC cells [1]: has activity in triple negative cells | growth of TNBC and ER-positive breast cancer cell lines [2]: inhibited growth; also recorded: inhibits proliferation of breast cancer cells | concentration of potent activity on glioma proliferation [3]: 5 to 10 µM | proliferation of glioma cell lines and primary GBM cells ([3]; varying concentration): significantly reduced their proliferation in a dose-dependent manner

GRKKRRQRRRGGIMGRGLCMRGVVRGRGRN [PIP2]
PELP1-mediated breast cancer cell proliferation (ZRPELP1 cells): significantly inhibit PELP1-mediated proliferation | disruption of PELP1 interaction with G9a/EHMT2 (PELP1-G9a complex): disrupted by the addition of either of the two peptides in a dose-dependent manner | ERE activation (ERE-luciferase) [4]: significantly decreased ERE activation | proliferation of therapy resistant cell lines [5]: inhibited the proliferation; also recorded: efficiently reduce the growth of therapy resistant cells
